Assay results taken from PubChem BioAssay (NCI).
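Grown in 96-well plates, cells were treated for 48 hours with each compound at five concentrations. Insufficient inhibition: endpoint recorded as highest concentration tested. TGI: total growth inhibition.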

Legend:
Test in all cases: NCI-60 cell line screen, 48 h
RPMI-8226 leukemia = test system: RPMI-8226 leukemia
MOLT-4 leukemia = test system: MOLT-4 leukemia
PC-3 prostate = test system: PC-3 prostate
A498 renal = test system: A498 renal
SW-620 colon = test system: SW-620 colon
SR leukemia = test system: SR leukemia
EKVX NSCLC = test system: EKVX NSCLC
OVCAR-5 ovarian = test system: OVCAR-5 ovarian
TK-10 renal = test system: TK-10 renal
MCF7 breast = test system: MCF7 breast
ACHN renal = test system: ACHN renal

Compound | TGI (RPMI-8226 leukemia) [µM] | TGI (MOLT-4 leukemia) [µM] | TGI (PC-3 prostate) [µM] | TGI (A498 renal) [µM] | TGI (SW-620 colon) [µM] | TGI (SR leukemia) [µM] | TGI (EKVX NSCLC) [µM] | TGI (OVCAR-5 ovarian) [µM] | TGI (TK-10 renal) [µM] | TGI (MCF7 breast) [µM] | TGI (ACHN renal) [µM]
ONC1=Nc2cc(Cl)ccc2C(=S)N2CSCC12 (centres undefined) | > 100 | > 100 | > 100 | > 100 | > 100 | > 100 | > 100 | > 100 | > 100 | > 100 | > 100
CC1(C)N/C(=C\[N+](=O)[O-])C(C)(C)N1O | > 10 | > 10 | > 10 | > 10 | > 10 | > 10 | > 10 | > 10 | > 10 | > 10 | > 10
COC(=O)c1csc([C@@H](OC(=O)[C@H](C)[C@H](CCCC(C)(Cl)Cl)OC(=O)c2csc([C@H](O)CO)n2)C(C)C)n1 | 34.1 | 32.2 | 26.7 | 32.7 | 32.6 | 32.2 | 33.4 | 29 | 24.9 | 35 | 25.8
O=[N+]([O-])c1ccc(CSc2nncc3[nH]cnc23)cc1 | > 100 | > 100 | > 100 | > 100 | > 100 | > 100 | > 100 | > 100 | > 100 | > 100 | > 100
COc1c(=O)cc2cc[nH]c3cc[nH]c1c23 | > 100 | > 100 | > 100 | > 100 | > 100 | > 100 | > 100 | > 100 | > 100 | 92.6 | > 100
CC(C)CCNC(=O)c1ccc(CNC(=O)/C=C/c2cccc(Oc3ccccc3)c2)cc1 | > 100 | > 100 | > 100 | > 100 | > 100 | > 100 | > 100 | > 100 | 96.9 | > 100 | > 100
OC(CC1CCCCN1)c1ccc2c(c1)oc1ccccc12 (centres undefined) | > 100 | 67.1 | > 100 | 64.7 | > 100 | > 100 | > 100 | > 100 | > 100 | > 100 | > 100
C=CCn1c(N)c(C#N)c(C#N)c1CCC | > 100 | > 100 | > 100 | > 100 | > 100 | > 100 | > 100 | > 100 | > 100 | > 100 | > 100
Cc1ccc(C2(O)CSC(=NC34CC5CC(CC(C5)C3)C4)N2C(P(=O)(O)O)P(=O)(O)O)cc1 (centres undefined) | > 100 | > 100 | > 100 | > 100 | > 100 | > 100 | > 100 | > 100 | > 100 | > 100 | > 100
Cc1c(-c2ccccc2)cc(O)c2nc3ccccc3n12 | > 100 | > 100 | > 100 | > 100 | > 100 | > 100 | > 100 | > 100 | > 100 | > 100 | > 100
O=c1[nH]c2cc(C(F)(F)F)ccc2nc1C(F)(F)F | > 100 | > 100 | 97.2 | > 100 | > 100 | > 100 | > 100 | > 100 | > 100 | > 100 | > 100
CS(=O)(=O)C(C#N)c1nc2ccccc2nc1Cl (centres undefined) | > 100 | > 100 | > 100 | > 100 | > 100 | > 100 | > 100 | > 100 | > 66.5 | > 100 | > 100
CC(C)(C)C1CCC(=O)/C(=C/CC2CC(=O)N(c3ccccc3)C(=O)C2)C1 (centres undefined) | 49.1 | 75.2 | 70.2 | 61.2 | 53.5 | 41.5 | 60.2 | 41.6 | 31.8 | 49.5 | 42.9
Cc1ccc(C(=O)N/N=C(\N=Nc2cccc([N+](=O)[O-])c2)c2ccc(N(CCC#N)CCC#N)cc2C)cc1 | > 100 | > 82.6 | > 100 | > 81.6 | > 100 | > 100 | > 69.4 | > 100 | > 100 | > 68.1 | > 100
O=C(O)CO[C@@]12C#C/C=C\C#C[C@@H]3N(C(=O)Oc4ccccc4)c4ccccc4[C@]14O[C@@]34CCC2 | > 100 | > 100 | > 100 | > 100 | > 100 | > 100 | > 100 | – | > 100 | 46.7 | > 100
C=C(CCOC)CCC1CCCCC(CN(C)C)C1=O (centres undefined) | > 100 | > 100 | > 100 | > 100 | > 100 | > 100 | > 100 | > 100 | – | > 100 | > 100
CCCCCCNCCc1cnc[nH]1 | > 100 | > 100 | > 100 | > 100 | > 100 | > 100 | > 100 | > 100 | – | > 100 | > 100
